# Measurements from PMC7688068 (Journal of medicinal chemistry, 2020).
# Legend:
# [1] = molecular target: T1, mPTPB (Mycobacterium tuberculosis, UniProt I6WXK4); assay type: biochemical
# [2] = system: Raw264.7 cells; assay type: in vitro ADME, mouse; settings: for cellular uptake (cellular bioavailability): LC-MS-based method; for cellular permeability compared to positive control compound 9 of ref 55: 20 μM input, 2 h, 37 °C
# [3] = system: mouse embryonic fibroblasts (MEF cells); settings: 72 h, up to 25 μM
# [4] = system: Raw 264.7 vector cells (pcN-HA); assay: signaling in vector control cells, western blot, IFN-γ stimulated; assay type: cell-based, mouse; settings: IFN-γ stimulation
# [5] = molecular target: T1, mPTPB; assay type: biochemical; remark: listed apart in the source
# T1 sequence (I6WXK4 whole entry, looked up): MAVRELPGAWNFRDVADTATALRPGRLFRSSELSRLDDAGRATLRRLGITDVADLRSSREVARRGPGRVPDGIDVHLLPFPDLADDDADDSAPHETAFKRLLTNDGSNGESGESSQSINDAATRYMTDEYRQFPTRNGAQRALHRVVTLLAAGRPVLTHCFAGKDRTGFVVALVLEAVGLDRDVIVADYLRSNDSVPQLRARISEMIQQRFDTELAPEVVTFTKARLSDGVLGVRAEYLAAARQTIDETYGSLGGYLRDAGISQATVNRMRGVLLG
Structure (SMILES),fold less potency compared to corresponding alkyne analogue [1] [fold],cellular uptake (cellular bioavailability) [2],cellular permeability compared to positive control compound 9 of ref 55 [2],further results
"O=C(O)C(=O)Nc1ccc(/C=C\c2ccccc2)cc1 [Compound 9, (Z)-2-Oxo-2-((4-styrylphenyl)amino)acetic Acid]",3,,,
"O=C(O)C(=O)Nc1ccc(CCc2ccccc2)cc1 [Compound 11, 2-Oxo-2-((4-phenethylphenyl)amino)acetic Acid]",5,,,
"O=C(O)C(=O)Nc1ccc(/C=C\c2ccc(C(F)(F)F)cc2)cc1 [Compound 10, (Z)-2-Oxo-2-((4-(4-(trifluoromethyl)styryl)phenyl)amino)acetic Acid]",45,,,
"O=C(O)C(=O)Nc1ccc(C#Cc2ccc(C(F)(F)F)cc2F)cc1 [Compound 4v, 2-((4-((2-Fluoro-4-(trifluoromethyl)phenyl)ethynyl)phenyl)amino)-2-oxoacetic Acid]",,can easily be taken up,,
"O=C(O)C(=O)Nc1ccc(CCc2ccc(C(F)(F)F)cc2)cc1 [Compound 12, 2-Oxo-2-((4-(4-(trifluoromethyl)phenethyl)phenyl)amino)acetic Acid]",13,,,
"O=C(O)C(=O)Nc1ccc(C#Cc2ccc(C(F)(F)F)cc2Br)cc1 [Compound 4u, 2-((4-((2-Bromo-4-(trifluoromethyl)phenyl)ethynyl)phenyl)amino)-2-oxoacetic Acid]",,can easily be taken up,better cellular permeability,
"CC(C)(C)OC(=O)Nc1ccc(C#Cc2ccc(NC(=O)C(=O)O)cc2)cc1 [Compound 4s, 2-((4-((4-((tert-Butoxycarbonyl)amino)phenyl)ethynyl)phenyl)amino)-2-oxoacetic Acid]",,,better cellular permeability,"cytotoxicity (cell viability, MTT) [3]: did not exhibit any significant cytotoxicity"
"O=C(O)C(=O)Nc1ccc(C#Cc2ccc(C(F)(F)F)cc2Cl)cc1 [Compound 4t, 2-((4-((2-Chloro-4-(trifluoromethyl)phenyl)ethynyl)phenyl)amino)-2-oxoacetic Acid]",,can easily be taken up,better cellular permeability,"cytotoxicity (cell viability, MTT) [3]: did not exhibit any significant cytotoxicity; pAKT, pERK1/2 and pp38 levels compared to vehicle-treated cells [4]: no significant change; mode of mPTPB inhibition [5]: reversible and competitive inhibitor"
"O=C(O)C(=O)Nc1ccc(C#Cc2ccc(C(F)(F)F)cc2)cc1 [Compound 4k, 2-Oxo-2-((4-((4-(trifluoromethyl)phenyl)ethynyl)phenyl)amino)acetic Acid]",,can easily be taken up,better cellular permeability,
